Assay results reported in patent US20050260637A1, “Drug screening” (priority 2004, published 2005).
Positions count from the first letter of the chain named. Names may count otherwise. Like-named read-outs stand apart in the source and are kept apart here.

Legend:
[1] = target: T1, M2/M1 (hRRM2 and hRRM1 reconstituted RNR) (Homo sapiens, UniProt P31350); assay: In vitro RNR activity assay with reconstituted hRRM2/hRRM1 ([3H]CDP reduction); assay type: biochemical; conditions: read-out: In vitro RR activity (IC50 ± sd) M2/M1
T1 construct: 6xHis; made in house
T1 sequence (P31350 1-389): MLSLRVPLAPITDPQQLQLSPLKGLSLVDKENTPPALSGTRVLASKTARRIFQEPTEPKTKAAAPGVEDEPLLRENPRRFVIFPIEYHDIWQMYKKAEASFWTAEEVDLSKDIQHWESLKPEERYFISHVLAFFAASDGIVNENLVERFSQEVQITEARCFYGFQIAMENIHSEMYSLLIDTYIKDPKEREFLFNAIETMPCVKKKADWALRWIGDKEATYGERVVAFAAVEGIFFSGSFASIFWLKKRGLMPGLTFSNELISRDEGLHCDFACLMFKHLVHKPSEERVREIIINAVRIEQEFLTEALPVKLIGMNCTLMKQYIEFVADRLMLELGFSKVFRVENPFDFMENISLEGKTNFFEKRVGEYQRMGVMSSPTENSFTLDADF
Protocol: (§1) To reconstitute an active RNR, three 6′His-tag human RNR subunit proteins (hRRM2, p53R2, and hRRM1) were prokaryotically expressed, purified using Ni-resin affinity chromatography, and stored in 50 mM Tris-HCl, pH 7.4, 100 mM KCl at −70° C. according to standard techniques. The purified proteins were subjected to SDS-PAGE analysis. […] To reconstitute RNR, 1 μM of hRRM2 or p53R2 protein was incubated with 0.5 μM hRRM1 protein in multiple-well plates. The reconstitute RNR was tested for RNR activity according to standard techniques.
(§2) Each compound of various concentration was mixed with the purified hRRM2 and hRRM1, or p53R2 and hRRM1 at room temperature for 30 minutes. An enzymatic reaction buffer was then added to the mixture to reach a final volume of 100 μl and incubated at 37° C. for 30 minutes. The reaction buffer contained […] [^3H] CDP, 50 mM HEPES pH 7.2,6 mM DTT, 4 mM MgOAC, 2 mM ATP, 0.05 mM CDP, 100 mM KCl, and 0.24 mM NADPH. […] FeCl3 could be added to the buffer as an iron source. After dephosphorylation, the supernatant of each reaction mixture was analyzed by an HPLC-connected radioactivity detector. IC50 values were calculated by the non-linear regression equations: f (x)=(a-d)/[1+(x/c)^b]+d.

[2] = target: T2, p53R2/M1 (p53R2 and hRRM1 reconstituted RNR) (Homo sapiens, UniProt Q7LG56); assay: In vitro RNR activity assay with reconstituted p53R2/hRRM1 ([3H]CDP reduction); assay type: biochemical; conditions: read-out: In vitro RR activity (IC50 ± sd) p53R2/M1
T2 construct: 6xHis; made in house
T2 sequence (Q7LG56 1-351): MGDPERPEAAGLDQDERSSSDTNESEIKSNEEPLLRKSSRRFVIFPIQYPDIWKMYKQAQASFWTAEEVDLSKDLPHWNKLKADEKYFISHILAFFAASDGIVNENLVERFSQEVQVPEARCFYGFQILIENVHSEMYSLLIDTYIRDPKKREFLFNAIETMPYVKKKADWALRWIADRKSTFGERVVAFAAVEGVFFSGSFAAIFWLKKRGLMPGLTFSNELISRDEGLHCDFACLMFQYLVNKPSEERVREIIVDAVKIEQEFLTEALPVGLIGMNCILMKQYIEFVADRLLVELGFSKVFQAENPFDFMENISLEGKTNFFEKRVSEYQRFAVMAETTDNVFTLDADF
Protocol: as §1, §2

[3] = tested on: T3, RNR containing hRRM2 or p53R2; assay: In vitro RNR activity assay, both reconstituted RNRs compared (average, selective index, comparison in words); assay type: biochemical, human; conditions: for IC50: average of M2/M1 and p53R2/M1, read-out: In vitro RR activity (IC50) Average
T3 construct: In vitro RR activity (IC50) Average; other: compound in 1% DMSO; average of M2/M1 and p53R2/M1; other: compound in 2.5% DMSO; other: compound in dH2O + FeCl3; other: compound in dH2O; Inhi; fused on or other part: 6xHis tag on each subunit
Protocol: as §1, §2
The above-described four SB-HSCs were tested for their inhibitory potency and subunit-selectivity by the in vitro RNR assay in the same manner descried above. The dose-dependent inhibition curves were found.

[4] = tested on: tyrosyl radicals of both RNR small subunits (hRRM2, p53R2); assay: EPR spectroscopy of tyrosyl radical after incubation with compound; assay type: biochemical, human; conditions: protein incubated with compound at room temperature for 30 minutes; EPR at 20 K
Protocol: Electron paramagnetic resonance (EPR) spectroscopy was then conducted. Prior to EPR, protein samples were incubated with each of the above-described compounds at room temperature for 30 minutes. EPR parameters were set as following: T=20 K, microwave frequency=9.376 GHz, microwave power=0.5 mW, modulation amplitude 4 gauss, modulation frequency 100 KHz. […] The EPR analysis was conduced in the presence of irons and the reductants.

human RNR = target: T4, human RNR (Homo sapiens, UniProt P23921); assay: C-terminal RRM2 peptide added to the enzyme in vitro; assay type: biochemical; conditions: added in vitro at a ratio of 10:1 (peptide:enzyme)
T4 sequence (P23921 1-792): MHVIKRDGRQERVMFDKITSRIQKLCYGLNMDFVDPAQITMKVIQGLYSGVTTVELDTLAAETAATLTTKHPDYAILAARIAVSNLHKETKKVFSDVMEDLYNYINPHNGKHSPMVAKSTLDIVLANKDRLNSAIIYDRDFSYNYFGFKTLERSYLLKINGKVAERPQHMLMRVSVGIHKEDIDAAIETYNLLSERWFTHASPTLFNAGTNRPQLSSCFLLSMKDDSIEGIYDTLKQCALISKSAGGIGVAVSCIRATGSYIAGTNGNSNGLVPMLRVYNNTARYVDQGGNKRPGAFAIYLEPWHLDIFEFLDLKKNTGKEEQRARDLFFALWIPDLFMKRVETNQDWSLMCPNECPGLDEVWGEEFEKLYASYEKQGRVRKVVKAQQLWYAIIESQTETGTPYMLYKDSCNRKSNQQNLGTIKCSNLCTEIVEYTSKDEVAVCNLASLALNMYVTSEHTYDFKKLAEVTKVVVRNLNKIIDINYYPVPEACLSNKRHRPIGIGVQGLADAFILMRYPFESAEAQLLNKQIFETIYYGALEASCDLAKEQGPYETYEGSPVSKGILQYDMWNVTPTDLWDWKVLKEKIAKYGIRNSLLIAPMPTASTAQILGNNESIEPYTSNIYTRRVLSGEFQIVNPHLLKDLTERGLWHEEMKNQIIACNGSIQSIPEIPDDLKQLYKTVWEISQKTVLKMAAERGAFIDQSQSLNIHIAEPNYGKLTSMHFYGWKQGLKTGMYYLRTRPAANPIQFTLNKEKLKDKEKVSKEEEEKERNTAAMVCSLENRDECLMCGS
Text: Also within the scope of this invention is a pharmaceutical composition that contains (1) an active agent, e.g., one of the above-descried antibodies, RNR mutant subunits, RNAi agents, or compounds identified to be RNR inhibitors; and (2) a pharmaceutically acceptable carrier and. Other active agents that can be used include an antisense oligonucleotide and a peptide or polypeptide containing an amino acid sequence at the C-terminus of RRM2. […] It was further observed that a truncated form of the M2 subunit, lacking these 7 amino acids at the C-terminus, fails to form a complex with the corresponding large subunit M1. […] Such peptides or polypeptides can be generated and used according to the methods described above or any other methods well known in the art. The efficacy of the pharmaceutical composition for treating a cell proliferation-associated disorder can be preliminarily evaluated in vitro. For in vivo studies, the composition can be injected into an animal and its therapeutic effects are then accessed.

p53R2/hRRM1 = target: T5, p53R2/hRRM1 (Homo sapiens, UniProt Q7LG56, Y124W); assay: RNR activity of mutated p53R2 proteins with hRRM1 (modified [3H]CDP reduction assay); assay type: biochemical
T5 construct: 6xHis; made in house; host or cells: E. coli BL21(DE3), pET-p53R2 template
T5 sequence (Q7LG56 1-351 Y124W): T2 sequence (Q7LG56 1-351) with Y124W
Protocol: The activities of hRRM2/hRRM1 and p53R2/hRRM1 were measured using a modified [^3H] CDP reduction assay. The reaction mixture contained 0.125 μM [^3H] CDP (0.3 μCi), 50 mM of HEPES (pH 7.2), 6 mM DTT, 4 mM MgOAC, 2 mM ATP, 0.05 mM CDP, 100 mM KCl, 0.24 mM NADPH. The enzyme activity was measured in the presence of 0.5 μM of M1 protein and 1 μM of hRRM2 or p53R2 proteins with a total sample volume of 100 μl. After incubation at 37° C. for 15-30 minutes and dephosphorylation with phosphodiesterase, the supernatant was analyzed by HPLC using a C-18 reversed phase column to separate [^3H] cytidine and [^3H] deoxycytidine. Radioactivity of the HPLC aliquots was measured with a β-RAM-2B Flow-through radioisotope beta/gamma detector (IN/US Systems, Tampa, Fla.). The enzyme activity was measured as relative activity of dCDP/(CDP+dCDP)% (i. e., the percentage of dCDP of all ribonucleoside diphosphates and deoxyribonucleoside diphosphates). Results were normalized against those of wild type proteins, which were considered having 100% conversion of CDP to dCDP. Each value is the average of two to three determinations with deviations <0.3%.

Molecule: NC(=O)NO [HU, Hydroxyurea]
- IC50 ([1]; compound in 1% DMSO): 148 ± 7.34 µM
- IC50 ([1]; compound in 2.5% DMSO): 155 ± 6.59 µM
- IC50 ([1]; compound in dH2O + FeCl3): 556 ± 24.1 µM
- IC50 ([1]; compound in dH2O): 165 ± 7.95 µM
- IC50 ([2]; compound in 1% DMSO): 159 ± 6.82 µM
- IC50 ([2]; compound in 2.5% DMSO): 146 ± 6.06 µM
- IC50 ([2]; compound in dH2O + FeCl3): 1990 ± 71.2 µM
- IC50 ([2]; compound in dH2O): 190 ± 6.43 µM
- Inhibition of reconstituted RNR activity (in words) [3]: significantly inhibited the activity of RNR containing hRRM2 or p53R2
- IC50 ([3]; compound in 1% DMSO): 153 µM
- IC50 ([3]; compound in 2.5% DMSO): 150 µM
- IC50 ([3]; compound in dH2O + FeCl3): 1270 µM
- IC50 ([3]; compound in dH2O): 178 µM
- Quenching of tyrosyl radical EPR signal [4]: quenched the tyrosyl radicals of both RNR small subunits

Molecule: FTLDADF [7-amino acid peptide (FTLDADF) at the C-terminus of RRM2]
- Suppression of human RNR activity (human RNR): dramatically suppress the human RNR activity

B1: Y124W-p53R2: p53R2 mutant with Tyr124 replaced by tryptophan (SEQ ID NO: 19) (protein, listed as Homo sapiens)
chain: T2 sequence (Q7LG56 1-351) with Y124W
- Enzyme activity retained, fraction of the wild type protein (p53R2/hRRM1): 1/3
